In ChEMBL document CHEMBL5244254, “Potential treatment methods targeting 2019-nCoV infection” (Eur J Med Chem, 2020) one finds EC50, selectivity ratio and CC50 data, which are given here for twelve compounds.

In brackets after ≈: the same amount, converted by molar mass. Where only a bound is given, the exact number is not on record here.

In data set [1] the test system is Zika virus. The data set is described as follows: Antiviral activity against Zika virus MR-766 infected in african green monkey Vero cells. Format: functional, organism-based. The conditions noted are these: MR-766, Vero.
Data set [2] relates to Tick-borne encephalitis virus. Nature of the data set: Antiviral activity against Tick-borne encephalitis virus Hypr infected in african green monkey Vero cells. Format: functional, organism-based.
The test system of data set [3] is Zika virus. Nature of the data set: Antiviral activity against Zika virus Paraiba-01 infected in african green monkey Vero cells. The conditions noted are these: Paraiba-01, Vero. Format: functional, organism-based.
Data set [4] has as its system West Nile virus. The data set is described as follows: Antiviral activity against West Nile virus 13-104 infected in african green monkey Vero cells. It counts as functional, organism-based. The conditions noted are these: 13-104, Vero.
The subject of data set [5] is West Nile virus. Nature of the data set: Antiviral activity against West Nile virus Eg101 infected in african green monkey Vero cells. It counts as functional, organism-based.
The nature of data set [6]: Inhibition of Severe acute respiratory syndrome coronavirus CYP3A4. It counts as ADME, Severe acute respiratory syndrome-related coronavirus.
For data set [7], the system named is Ebolavirus. The data set is described as follows: Antiviral activity against Ebolavirus infected in African green monkey Vero E6 cells. The conditions noted are these: Orthoebolavirus, Vero C1008. Format: functional, organism-based.
The nature of data set [8]: Selectivity ratio of CC50 for African green monkey Vero E6 cells to EC50 for Severe acute respiratory syndrome coronavirus infected in African green monkey Vero E6 cells. It counts as toxicity, Vero C1008. The conditions noted are these: read-out: Ratio CC50/EC50.
Data set [9] in a line: Cytotoxicity against African green monkey Vero E6 cells assessed as cell growth inhibition incubated for 48 hrs by CCK8 assay. It counts as toxicity, cell-based, Vero C1008. The conditions noted are these: chlorocebus sabaeus.
Data set [10] relates to SARS-CoV-2. The data set is described as follows: Antiviral activity against Severe acute respiratory syndrome coronavirus 2. Format: functional, organism-based.
Data set [11] is described as follows: Cytotoxicity against African green monkey Vero E6 cells assessed as cell growth inhibition incubated for 48 hrs. The conditions noted are these: chlorocebus sabaeus. Format: toxicity, cell-based, Vero C1008.
The test system of data set [12] is SARS-CoV. Nature of the data set: Antiviral activity against Severe acute respiratory syndrome coronavirus. Format: functional, organism-based. The conditions noted are these: Severe acute respiratory syndrome-related coronavirus.
Data set [13] concerns SARS-CoV-2. The data set is described as follows: Antiviral activity against Severe acute respiratory syndrome coronavirus 2 incubated for 48 hrs by TCID50 assay. Format: functional, organism-based. The conditions noted are these: Severe acute respiratory syndrome coronavirus 2, 48 h.
Data set [14] has as its system SARS-CoV-2. Nature of the data set: Antiviral activity against Severe acute respiratory syndrome coronavirus 2 infected in African green monkey Vero cells incubated for 24 to 48 hrs. It counts as functional, organism-based. The note with it: Severe acute respiratory syndrome coronavirus 2, Vero.
Data set [15] can be described thus: Inhibition of Severe acute respiratory syndrome coronavirus 3CL protease. Also noted: species or system Severe acute respiratory syndrome-related coronavirus.
Data set [16] can be described thus: Cytotoxicity against African green monkey Vero E6 cells assessed as cell growth inhibition incubated for 24 hrs by CCK8 assay. Format: toxicity, cell-based, Vero C1008. The conditions noted are these: chlorocebus sabaeus.
The test system of data set [17] is SARS-CoV. Nature of the data set: Antiviral activity against Severe acute respiratory syndrome coronavirus infected in African green monkey Vero E6 cells. Format: functional, organism-based. The conditions noted are these: Severe acute respiratory syndrome-related coronavirus, Vero C1008.
Data set [18] can be described thus: Selectivity ratio of CC50 for African green monkey Vero E6 cells to EC50 for Severe acute respiratory syndrome coronavirus […]. The conditions noted are these: read-out: Ratio CC50/EC50. Format: toxicity, Vero C1008.

Take `CCOC(=O)c1c(CSc2ccccc2)n(C)c2cc(Br)c(O)c(CN(C)C)c12` [UMIFENOVIR]: the EC50 in [1], in data set [2], in data set [3], in [4] and in data set [5] was 10.6 µM each time. With `CC(C)c1nc(CN(C)C(=O)N[C@H](C(=O)N[C@@H](Cc2ccccc2)C[C@H](O)[C@H](Cc2ccccc2)NC(=O)OCc2cncs2)C(C)C)cs1` [RITONAVIR], the EC50 in [6] is above 100 µM. For the compound `NC(=O)c1nc(F)cnc1O`, the concentration for a half-maximal effect (EC50) in [7] was 10.5 µg/mL (≈ 66.8 µM). Further, the selectivity ratio in data set [8] is above 6.46. Also, in data set [9], the CC50 at 48 h is above 400 µM. In turn, `CCOC(=O)C1=C[C@@H](OC(CC)CC)[C@H](NC(C)=O)[C@@H](N)C1` [OSELTAMIVIR] gave an EC50 in data set [10] above 100 µM. Also, the CC50 at 48 h in data set [11] is above 100 µM. In [12], `NC(=O)c1ncn([C@@H]2O[C@H](CO)[C@@H](O)[C@H]2O)n1` [RIBAVIRIN] had an EC50 above 100 µM. Consider `Cc1cccc(C)c1OCC(=O)N[C@@H](Cc1ccccc1)[C@@H](O)C[C@H](Cc1ccccc1)NC(=O)[C@H](C(C)C)N1CCCNC1=O` [LOPINAVIR], for which, in data set [13], a half-maximal effect (EC50) was put at 26.1 µM. On to `CCN(CCO)CCCC(C)Nc1ccnc2cc(Cl)ccc12` (configuration not stated) [HYDROXYCHLOROQUINE], for which, in data set [14], a half-maximal effect (EC50) was put at 0.72 µM. Take `Cc1cc(C(=O)N[C@@H](C)C(=O)N[C@H](C(=O)N[C@@H](CC(C)C)C(=O)N[C@H](/C=C/C(=O)OCc2ccccc2)C[C@@H]2CCNC2=O)C(C)C)no1`: the EC50 in [15] was found to be 16.8 µM.

With `CC(C)(C)OC(=O)Nc1cccn([C@@H](CC2CC2)C(=O)N[C@H](CC(=O)NCc2ccccc2)C[C@@H]2CCNC2=O)c1=O`, in data set [15], a half-maximal response (EC50) required 4 µM. On to `O=C[C@H](C[C@@H]1CCNC1=O)NC(=O)[C@H](CC1CCCCC1)NC(=O)c1cc2ccccc2[nH]1`, for which the CC50 at 24 h in data set [16] was above 100 µM. For `CCN(CC)CCCC(C)Nc1ccnc2cc(Cl)ccc12` (configuration not stated) [CHLOROQUINE], the EC50 in [17] worked out at 1.13 µM. For the same compound, the selectivity ratio in data set [8] was above 88.5. Moreover, in data set [9], the CC50 at 48 h is above 100 µM. As for `O=C[C@H](C[C@@H]1CCNC1=O)NC(=O)[C@H](Cc1cccc(F)c1)NC(=O)c1cc2ccccc2[nH]1`, the CC50 at 24 h in data set [16] is above 100 µM. Also, the selectivity ratio in data set [18] is above 139.
